# What was measured:
# [1] = test system: Diamondback moth (Plutella xylostella); experiment: Diet-surface overlay (DSO) bioassay on Diamondback moth; assay type: in vivo; settings: number of individuals, n = 16
# Procedure: (§1) Diet-surface overlay bioassays are conducted with artificial diet mixes without antibiotics in 1.5 cm^2 cell bioassay trays(s). Artificial diets are commercially available from Southland Products Inc. Diets were prepared by dispersing 0.5 mL of molten diet to each 1.5 cm^2 cell. After solidification, 0.1 mL enzyme treatments were dispersed on top of diet in each cell and the tray was gently rocked in an orbital shaker to spread the liquid uniformly over the diet surface. Trays were placed under clean airflow until the surface of each cell was uniformly dried. One or two 16-cell sections were used per treatment (the number in larvae treated was 16 or 32).
# (§2) One healthy first instar larva was placed into each treatment cell, each 16-cell section was covered with a re-sealable lid and incubated at 27° C. and light-dark period of 16:8 hrs. After 7 days, and according to the species, the number of individuals in the following developmental categories was recorded.
# (§3) Diamondback moth (Plutella xylostella): Dead Larva (lack of movement), Larva Stage I (≤50% relative size), Larva Stage II (100% relative size, full size), Early Pupa (light green color), Late Pupa (light-dark brown color), and Adult.
# (§4) Negative/untreated controls were treated with filtered water and positive controls were treated with lethal doses of Bacillus thuringiensis subsp. Kurstaki (Btk) spores at 1000 ppm.
# [2] = test system: Btk resistant Diamondback moth; experiment: Diet-surface overlay (DSO) bioassay on Btk resistant Diamondback moth; assay type: in vivo, Plutella xylostella; settings: number of individuals, n = 32, 7 days
# Procedure: as §1, §2, §3, §4
# However, both neutral proteases reduced the number of individuals reaching adult stage.
# The effect of lipase (10× enzyme rate) and free lipases were tested on a Diamondback Moth Btk resistant strain. Free Lipases from Burkholderia cepacia (Bc) and Pseudomonas fluorescens (Pf) were tested along with Lipase (SEQ ID NO: 76) and the results are shown below in Table 45.
# [3] = test system: soybean cyst nematode (SCN); experiment: SCN reproduction after application of enzyme or recombinant strain to soil; assay type: in vivo, Heterodera glycines; settings: Table 33; for % Comparison to Control: first figure, water control = 100%
# Procedure: To determine the efficacy of nematicidal enzymes applied to soil, a controlled environment trial was performed with 7-day old soybean plants (variety 2830E3) grown in pots. Enzymes were produced as described in Example 2. Prior to inoculation, 0.5 mL of neutral protease (SEQ ID NO: 127), esterase B (SEQ ID NO: 89), or chitinase 19F (SEQ ID NO: 182) free enzyme solution was applied to the soil around the base of each plant, or 0.5 mL of water was applied for the control (30 plants per treatment). Then, hatched SCN juveniles were applied to the soil around each plant as described in Example 2, and three weeks later, cysts per gram of root tissue was determined as described in Example 2. The data was analyzed as in Example 2 and appears in Tables 33 and 34.
# To determine the efficacy of recombinant strains applied to soil, a controlled environment trial was performed as described in Example 18 above (Reduction of soybean cyst nematode reproduction by enzymes applied to soil), with the exception that a recombinant strain expressing neutral protease (SEQ ID NO: 127) was applied instead of a free enzyme solution. The recombinant strain was produced as in Example 3, and the treatment applied to soil as a whole cell broth.
# [4] = test system: soybean cyst nematode (SCN, Heterodera glycines); experiment: Soybean cyst nematode reproduction on soybean after seed treatment, controlled environment (cysts per gram of root tissue or per plant); assay type: in vivo
# Meloidogyne incognita = experiment: Root gall index of soybeans inoculated with Meloidogyne incognita after seed treatment (greenhouse); assay type: in vivo; settings: for % Comparison to Control: first figure, base seed treatment control = 100%
# Procedure: Nematicidal neutral protease (SEQ ID NO: 127) was produced by fermentation in Bacillus subtilis. The enzyme was cloned into Bacillus expression plasmid p1797 with isopropyl β-d-1-thiogalactopyranoside (IPTG)-inducible expression. The plasmid was transformed into B. subtilis, and this strain was grown in rich media until an optical density (OD) of 0.2-0.5 was reached. Then, enzyme expression was induced by addition of 1 mM IPTG. Following the culture harvest, cells were removed by filtration through a […] filter. Culture filtrate containing secreted protease was then used for seed treatment. Bacillus subtilis fermentation filtrate expressing neutral protease was mixed directly into a seed treatment slurry containing colorant and Peridiam® 1006 […] at a rate of 2 fl oz per unit of seed and coated onto Bossier variety soybean seed.
# To investigate the effects of neutral protease on galling due to root knot nematode infestation, treated seeds were planted in soil in cone-tainers in a greenhouse. Seven days after planting, each cone-tainer was inoculated with 1250 eggs from the Dick Meloidogyne incognita population. Eight weeks post-inoculation, roots were excavated and washed. Root galling was visually rated on a gall index (GI) scale of 1-5 (1=<10% GI; 2=11-20%, 3=21-30%, 4=31-40%, 5=>40% GI). Fifteen plants were evaluated per treatment and their average root gall ratings were recorded.
substance,measurement,setting,value
Neutral protease (SEQ ID NO: 127): Bacillus sp. B16 neutral protease produced by fermentation in Bacillus subtilis; culture filtrate containing the secreted enzyme,Dead Larva,"[1]; Table 41, proteases, after 7 days, rate in U/mL diet column",2
same,Adult,"[1]; Table 41, 7 days",0
same,Early Pupa,"[1]; Table 41, 7 days",8
same,Larva Stage I,"[1]; Table 41, 7 days",0
same,Larva Stage II,"[1]; Table 41, 7 days",0
same,Late Pupa,"[1]; Table 41, 7 days",6
same,Dead Larva,"[2]; Table 42, proteases at 10x rate",4
same,Adult,[2]; Table 42,0
same,Early Pupa,[2]; Table 42,6
same,Larva Stage I,[2]; Table 42,0
same,Larva Stage II,[2]; Table 42,0
same,Late Pupa,[2]; Table 42,22
same,% Comparison to Control (figure in parentheses),[3]; change vs water control,−32%
same,% Comparison to Control,[3],reduced SCN reproduction
same,% Comparison to Control,[3]; listed as Neutral protease free enzyme (SEQ ID NO: 127),68%
same,Average cysts per g of root tissue,"[3]; free enzyme 0.5 mL/plant to soil, soybean 2830E3, 3 weeks",35.7 cysts per g of root tissue
same,Average cysts per g of root tissue,"[4]; Table 11, free enzyme seed treatment 2 fl. oz. per unit of seed (ILEVO 0.15 mg active ingredient per seed), soybean P18A98X, 3 weeks after inoculation",20.1 cysts per g of root tissue
same,Average cysts per g of root tissue,"[4]; Table 14, seed treated with whole cell broth, soybean P18A98X",40.3 cysts per g of root tissue
same,% Comparison to Control (figure in parentheses),"[4]; Table 38, change vs base control, liquid 2 fl oz/unit, ILEVO",−42%
same,Average cysts per g of root tissue,"[4]; Table 38, liquid formulation 2 fl oz/unit, ILEVO positive control, soybean 2830E3",208.8 cysts per g of root tissue
same,% Comparison to Control (figure in parentheses),"Meloidogyne incognita; Table 26, change vs base control",−26%
same,% Comparison to Control,Meloidogyne incognita; Table 26,reduction of average visual gall rating
same,% Comparison to Control,"Meloidogyne incognita; Table 26, listed as Neutral protease seed treatment (SEQ ID NO: 127)",74%
same,Average root gall rating,"Meloidogyne incognita; gall index scale of 1-5, seed treatment 2 fl oz per unit of seed, Bossier soybean, 8 weeks post-inoculation, 15 plants",3.5
